From PubChem BioAssay (NCI)
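Grown in 96-well plates, cells were treated for 48 hours with each compound at five concentrations. Insufficient inhibition: endpoint recorded as highest concentration tested. Abbreviation: GI50, concentration required for 50% inhibition of growth. TGI: concentration producing complete growth inhibition.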

Tests used:
Test in all cases: NCI tumour cell line growth inhibition, 48 h
[1] = test system: EKVX NSCLC
[2] = test system: HL-60(TB) leukemia
[3] = test system: MALME-3M melanoma
[4] = test system: OVCAR-4 ovarian
[5] = test system: PC-3 prostate
[6] = test system: RXF 393 renal
[7] = test system: SN12C renal
[8] = test system: UACC-257 melanoma
[9] = test system: HCT-116 colon
[10] = test system: MDA-N

Compound	GI50 [1] [nM]	TGI [1] [µM]	GI50 [2] [nM]	TGI [2] [µM]	GI50 [3] [nM]	TGI [3] [µM]	GI50 [4] [nM]	TGI [4] [µM]	GI50 [5] [nM]	TGI [5] [µM]	GI50 [6] [nM]	TGI [6] [µM]	GI50 [7] [nM]	TGI [7] [µM]	GI50 [8] [nM]	TGI [8] [µM]	TGI [9] [µM]	TGI [10] [µM]	GI50 [9] [µM]
CCN(CC)CCN1C(=O)c2c(c3c4ccccc4[nH]c3c3ccc4ccccc4c23)C1=O	1690	3.32	2040	4.35	1790	3.46	1580	2.96	1440	3.25	1420	2.83	1710	3.22	1730	3.27	–	–	–
C=C(NC(=O)C(=C)NC(=O)c1csc(C2=NC3c4csc(n4)C4NC(=O)c5csc(n5)C(C(C)(O)C(C)O)NC(=O)C5CSC(=N5)/C(=C/C)NC(=O)C(C(C)O)NC(=O)c5csc(n5)C3(CC2)NC(=O)C(C)NC(=O)C(=C)NC(=O)C(C)NC(=O)C(C(C)CC)NC2C=Cc3c(C(C)O)cc(nc3C2O)C(=O)OC4C)n1)C(N)=O (stereo not drawn)	–	> 44.1	–	> 100	–	3.99	–	> 100	–	–	307	0.977	–	3.93	–	4.22	1.77	–	–
COc1cc(OC)c2c3c(OC)cc(OC)c4c(=O)c(O)c(C[C@@H](C)O)c(c5c(C[C@@H](C)O)c(O)c(=O)c1c25)c43	–	> 100	–	30.7	–	–	–	> 100	–	–	–	73.1	–	68.6	–	> 100	30.1	34	–
CC1(C)CCC(C)(C)C1C(=O)NC(O)C(=O)O (stereo not drawn)	–	> 100	–	> 100	–	–	–	–	–	> 100	–	–	–	> 100	–	–	> 100	> 100	–
CCOC(=O)c1nc2ccc(C(F)(F)F)cc2nc1Nc1ccc(Cl)c(Cl)c1	–	> 100	–	> 100	–	> 100	–	–	–	> 100	–	> 100	–	> 100	–	> 100	> 100	> 100	–
Cc1ccc(C2=C(C#N)C(N)OC3=C2COc2ccccc23)cc1 (stereo not drawn)	–	37.4	–	> 100	–	82.1	–	40.7	–	57.2	–	–	–	74.4	–	> 100	> 100	> 100	–
O=C1CC(c2ccccc2)=Nc2ccccc2N1	–	> 100	–	> 100	–	> 100	–	> 100	–	–	–	> 100	–	> 100	–	> 100	> 100	–	–
O=C(N/N=C\c1ccc(N(CCCl)CCCl)cc1[N+](=O)[O-])c1cccnc1	> 100000	> 100	> 100000	> 100	> 100000	> 100	–	–	> 100000	> 100	> 100000	> 100	> 100000	> 100	> 100000	> 100	> 100	–	> 100
O=C(NC(=O)c1cc(-c2ccccc2)n[nH]1)c1ccccc1	–	> 100	–	–	–	–	–	> 100	–	> 100	–	> 100	–	> 100	–	> 100	> 100	> 100	–
COC(=O)c1ccc(C)cc1CC1Cc2ccc(C)cc2C1=O (stereo not drawn)	–	36.6	–	10.7	–	24.3	–	89.5	–	71.8	–	28.8	–	32.7	–	53.6	19	–	–
O=C(/C=C/c1cccc(Oc2ccccc2)c1)NCc1ccc(C(=O)NCCc2ccccc2)cc1	–	> 100	–	–	–	> 100	–	> 100	–	> 100	–	61.1	–	> 100	–	> 100	> 100	> 100	–
CC(C)(C)OC(=O)CN1CCNCCN(CC(=O)OC(C)(C)C)CCNCC1	–	> 100	–	> 100	–	–	–	> 100	–	> 100	–	> 100	–	> 100	–	> 100	> 100	> 100	–
Cn1cc(-c2ccc3cc(-c4ccc(CC(=O)Nc5cc(C(C)(C)C)on5)cc4)cnc3c2)cn1	624	3.45	2660	7.45	–	–	–	–	2400	20.8	–	–	1150	10.4	–	–	–	–	–
Cc1oc2c(c1C)S(=O)(=O)C(C#N)=C(N(C)C)N2	–	> 100	–	–	–	> 100	–	> 100	–	> 100	–	–	–	> 100	–	> 100	> 100	> 100	–
C=C1C(=O)O[C@@H]2[C@H](O)[C@@H](C)[C@@H]3C=CC(=O)[C@@]3(C)[C@@H](OC(=O)/C(C)=C/C)[C@H]12	–	1.93	–	9.82	–	1.49	–	3.05	–	–	–	1.14	–	2.52	–	1.87	1.03	–	–
O=C(c1ccc(Cl)cc1)N(C(=S)N1CCN(c2ccccn2)CC1)C1CCCCC1	–	–	–	> 100	–	> 100	–	> 100	–	–	–	> 100	–	> 100	–	> 100	> 100	–	–
Cn1ncc2c(Cl)ncnc21	–	> 100	–	> 100	–	–	–	> 100	–	> 100	–	> 100	–	> 100	–	> 100	> 100	> 100	–
COc1ccc([C@@H]2CC(=O)N2)cc1	–	> 100	–	> 100	–	> 100	–	> 100	–	–	–	> 100	–	> 100	–	> 100	> 100	–	–
Cc1csc2c1-n1cccc1C2=O	–	> 100	–	–	–	> 100	–	> 100	–	> 100	–	> 100	–	> 100	–	> 100	> 100	> 100	–
Cc1sc2c(c1C)/C(=N\O)c1cccn1-2	–	> 100	–	–	–	> 100	–	> 100	–	> 100	–	65.5	–	> 100	–	> 100	> 100	> 100	–
CC(O)(P(=O)(O)O)P(=O)(O)OCC(O)CN1CCOCC1 (stereo not drawn)	–	> 100	–	> 100	–	> 100	–	–	–	> 100	–	> 100	–	–	–	> 100	> 100	> 100	–
O=C(O)c1ccc(C2=Cc3cc(Cl)ccc3OC2)cc1	–	> 100	–	> 100	–	> 100	–	–	–	–	–	> 100	–	> 100	–	> 100	> 100	–	–
CC(=O)NC(C)(C)C1CCC(C)=C(c2ccccc2)C1 (stereo not drawn)	–	> 100	–	> 100	–	–	–	> 100	–	> 100	–	–	–	> 100	–	> 100	> 100	> 100	–

Compound	GI50 [1] [nM]	TGI [1] [µM]	GI50 [2] [nM]	TGI [2] [µM]	GI50 [3] [nM]	TGI [3] [µM]	GI50 [4] [nM]	TGI [4] [µM]	GI50 [5] [nM]	TGI [5] [µM]	GI50 [6] [nM]	TGI [6] [µM]	GI50 [7] [nM]	TGI [7] [µM]	GI50 [8] [nM]	TGI [8] [µM]	TGI [9] [µM]	TGI [10] [µM]	GI50 [9] [µM]
O=C(O)c1cnc(-n2[nH]c3c(c2=O)CCCC3)[nH]c1=O	–	> 100	–	> 100	–	> 100	–	> 100	–	> 100	–	–	–	> 100	–	> 100	> 100	> 100	–
CC(=O)Nc1ccc2[nH]c(C(=O)N3CC(CCl)c4c3cc([N+](=O)[O-])c3ccccc43)cc2c1 (stereo not drawn)	–	> 89.4	–	23	–	–	–	> 100	–	> 100	–	32.7	–	> 100	–	> 100	> 100	> 100	–
c1csc(-c2ccsc2-c2cccs2)c1	–	> 100	–	86.7	–	–	–	> 100	–	–	–	> 100	–	> 100	–	> 100	> 100	> 100	–
C/C=C1\CN(C(=O)OC(C)(C)C)C1C(=O)OC(C)(C)C (stereo not drawn)	–	> 100	–	> 100	–	> 100	–	> 100	–	> 100	–	–	–	> 100	–	> 100	> 100	> 100	–
CC1CC/C(=C\c2ccc(F)cc2)C(=O)/C1=C/c1ccc(F)cc1 (stereo not drawn)	–	17.9	–	–	–	32.8	–	–	–	28.3	–	9.98	–	9.9	–	29.9	5.4	13.5	–
O=C1/C=C(/c2ccc(O)cc2)[C@@H](O)Cc2ccc(O)cc2O1	–	> 100	–	–	–	> 100	–	> 100	–	–	–	–	–	> 100	–	> 100	> 100	–	–
CC(=O)Oc1c(-c2ccccc2)sc2ccccc12	–	53	–	39.6	–	37.2	–	73.4	–	97.5	–	28.1	–	–	–	37	26.1	–	–
NC(CSSCC(N)=NCC12CC3CC(CC(C3)C1)C2)=NCC12CC3CC(CC(C3)C1)C2	–	–	–	26.3	–	33.6	–	45.3	–	29.9	–	> 100	–	31.1	–	30.5	80.9	–	–
O=C(/C=C(\S/C=C(/c1ccccc1)N1CCn2c(C(=O)c3ccccc3)c(C(=O)c3ccccc3)c(C(=O)c3ccccc3)c21)C(=O)c1ccccc1)c1ccccc1	–	> 10	–	> 10	–	> 10	–	> 10	–	> 10	–	–	–	> 10	–	> 10	> 10	> 10	–
COc1ccccc1NC(=O)CC(=O)N1N=C(N2c3ccccc3Sc3ccccc32)CC1c1ccccc1 (stereo not drawn)	–	> 100	–	> 100	–	–	–	> 100	–	> 100	–	> 100	–	> 100	–	> 100	> 100	–	–
CCOC(=O)C(Cc1c[nH]c2cc([N+](=O)[O-])ccc12)NS(=O)(=O)c1ccc2ccccc2c1 (stereo not drawn)	–	78.1	–	48.5	–	–	–	28	–	–	–	37.8	–	34.4	–	28.8	30.9	–	–
S=c1[nH]n2c(CCCCCCCCc3nnc4sc(=S)[nH]n34)nnc2s1	–	> 100	–	> 100	–	> 100	–	> 100	–	> 100	–	–	–	> 100	–	> 100	> 100	> 100	–
NNC(=S)NCCNC(=S)NN	–	> 100	–	> 100	–	> 100	–	> 100	–	> 100	–	–	–	> 100	–	> 100	> 100	> 100	–
O=C(CSc1nc(-c2ccccc2)c(-c2ccccc2)[nH]1)N/N=C/c1ccc(O)cc1	–	84.4	–	62.3	–	52.5	–	–	–	–	–	61.4	–	66.7	–	> 100	63.2	–	–
COC1=CC(=O)CC(C)C12Oc1c(Cl)c(OC)cc(OC)c1C2=O (stereo not drawn)	–	> 100	–	> 44.1	–	> 100	–	> 100	–	> 70.3	–	43.3	–	> 100	–	> 100	> 93.7	–	–
Clc1ccc(-c2cn3c(nc4ccccc43)c(/C=C/c3ccco3)n2)cc1	–	–	–	41.7	–	> 100	–	> 100	–	–	–	> 100	–	> 100	–	> 100	> 100	> 100	–
COC1=CC2(CC(OC)=C1OC)OC21COc2ccccc2C1=O (stereo not drawn)	–	> 100	–	> 100	–	> 100	–	> 100	–	> 100	–	> 100	–	> 100	–	> 100	> 100	–	–
C=C1CC(Cn2ccc(=O)[nH]c2=O)(c2ccc(Cl)cc2)OC1=O (stereo not drawn)	–	35	–	> 100	–	7.13	–	3.61	–	19.2	–	–	–	28.1	–	12.4	5.63	17.1	–
NC1=NS(=O)(=O)Nc2nc(-c3ccccc3)[nH]c21	–	> 100	–	> 100	–	> 100	–	> 100	–	–	–	> 100	–	> 100	–	> 100	> 100	–	–
COC(=O)N[C@H](C(=O)O)C(C)O[Si](C)(C)C(C)(C)C (stereo partly drawn)	–	> 100	–	> 100	–	> 100	–	> 100	–	> 100	–	> 100	–	> 100	–	> 100	> 100	–	–
C=C1C(O)C[C@H](OC(C)=O)[C@]2(C)C1C(OC(C)=O)[C@]1(C(C)(C)O)CC(O)C(C)=C1[C@@H](OC(=O)c1ccccc1)C2OC(C)=O (stereo partly drawn)	–	> 10	–	> 10	–	–	–	> 10	–	> 10	–	> 10	–	> 10	–	> 10	> 10	> 10	–
O=[N+]([O-])C(/C=N/Nc1ccccc1)/C=N/Nc1ccccc1	–	> 100	–	> 100	–	> 100	–	> 100	–	–	–	> 100	–	> 100	–	> 100	> 100	–	–
